One assay relates to HeLa cell histones. In words: Histone acetylation state in HeLa cells (AUT gel electrophoresis). Format: cell-based, human. The note with it: HeLa cells treated 4 hrs, FIG. 1, relative to untreated cells. How it is done:
About 2×10^7 HeLa cells growing at 37 C were treated with various compounds in the standard tissue culture medium (MEM containing 10% fetal calf serum) for 4 hrs. Cells were then removed from the flask by scraping in PBS in a total volume of about 10 mls. The cells were washed twice in PBS and resuspended in about 3 mls lysis buffer (Lysis buffer; 0.45% Nonidet® P-40, 10 mM tris, 10 mM NaCl, 5 mM MgCl, 0.1 mM EGTA, 0.1 mM PMSF). The suspension was mixed by vortexing for 10 seconds, incubated on ice for 15 minutes and nuclei were pelleted by centrifugation through a 1 ml cushion of 30% sucrose in lysis buffer at 1300×g for 10 minutes. The supernatant was discarded and the nuclei were then resuspended in 1.0 ml water. H2SO4 was added to a final concentration of 0.4M and the nuclear suspension was incubated on ice for 30 min. and then pelleted by centrifugation at 13,000×g for 10 minutes. The pellets were discarded, and ten volumes of ice cold acetone was added to the supernatant proteins and left overnight at −20° C. to precipitate soluble proteins. These proteins (predominantly histones) were pelleted by centrifugation at 10,000×g for 15 minutes at 4° C. and resuspended in AUT sample buffer (Sample buffer: 0.9M acetic acid, 0.02% w/v methyl green) in preparation for gel electrophoresis.
Acid urea triton (AUT) polyacrylamide gels were performed according to the methods of Alfageme et al (1974) J. Biol. Chem. 249, 3729, with modifications as described in Lennox and Cohen (Methods in Enzymology, 170, 532-549). For optimal resolution of HeLa cell and Plasmodium falciparum histones the separation gel contained 7.5M urea, 12% acrylamide, 0.38% Triton® X 100, 0.08% bis acrylamide, and 0.87M acetic acid. The loading gels contained 7.5M urea, 0.37% Triton X 100, 6% acrylamide, 0.04% bis acrylamide and 0.87M acetic acid. […] Gels were either stained with Coomassie Brilliant Blue R in 7% acetic acid, 20% methanol and then destained in 7% acetic acid and 20% methanol, or treated with Enlightening (from New England Nuclear), dried and radiolabel detected by fluorography.

Another assay relates to P. falciparum histones. Description: Histone acetylation state in P. falciparum (14C acetate labeling, AUT gel). The format is cell-based. The note with it: infected red blood cells, 14C sodium acetate, 2 hours, FIG. 2. How it is done:
Acid urea triton (AUT) polyacrylamide gels were performed according to the methods of Alfageme et al (1974) J. Biol. Chem. 249, 3729, with modifications as described in Lennox and Cohen (Methods in Enzymology, 170, 532-549). For optimal resolution of HeLa cell and Plasmodium falciparum histones the separation gel contained 7.5M urea, 12% acrylamide, 0.38% Triton® X 100, 0.08% bis acrylamide, and 0.87M acetic acid. The loading gels contained 7.5M urea, 0.37% Triton X 100, 6% acrylamide, 0.04% bis acrylamide and 0.87M acetic acid. Gels were run in 1M acetic acid. Gels were pre-electrophoresed at 350V for 1 hour and run at 450V for 3.5 hours. Gels were either stained with Coomassie Brilliant Blue R in 7% acetic acid, 20% methanol and then destained in 7% acetic acid and 20% methanol, or treated with Enlightening (from New England Nuclear), dried and radiolabel detected by fluorography.
Approximately 1×10^9 P. falciparum infected red blood cells (about 60% parasitized) were resuspended in 10 ml of RPMI 1640 containing various concentrations of test compounds and 250 μCi ^14C sodium acetate and incubated at 37° C. for 2 hours. The cells were then washed 3 time with PBS and histones were prepared as described below.
Histones were prepared according to the method of Cary et al (1994) Parasitology Research, 80, 255-258. […]

In assay [1] the target is histone deacetylase (E. tenella lysate). In words: Competitive binding assay with 3H-N-desmethoxyapicidin, E. tenella S100 lysate. Particulars: 3H-N-desmethoxyapicidin ligand. How it is done:
E. tenella oocysts. Approximately 2×10^9 E. tenella oocysts are suspended in 5 ml of PBS/0.1 mM PMSF, 4 mls of an equal mixture (vol/vol) of 4.0 and 1.0 mm glass beads is added. The glass bead-oocyst mixture is then shaken for 20 minutes to cause disruption of the oocysts. The efficiency of breakage is checked microscopically. The resulting homogenate is separated from the glass beads and centrifuged at 3000×g for 10 min. The supernatant is then subjected to an additional centrifugation at 100,000 g for 1 hr. The pellet is discarded and the supernatant, referred to as the E. tenella S100 fraction, is retained for binding assays. After estimating the protein concentration, the supernatant (S100) is aliquoted and frozen at −80 C.
(§1) Each assay tube contains a final volume of 1 ml with 1.3 ng/ml of ^3H-N-desmethoxyapicidin, 150-200 μg of the appropriate S100 supernatant and concentrations of potential HDA inhibitors from 0.001-10 μg/ml.
(§2) (i) labeled substrate. […]
(§3) Stock solutions of potential HDA inhibitors (ii) are diluted into 50 mM HEPES/Triton® buffer to achieve a final concentration of test compound in the range of 0.001-10 μM. ^3H-N-desmethoxyapicidin is added to a final concentration of 1.3 ng/ml. […] The filter is then dried and counted in scintillant.

In assay [2] the test system is histone deacetylase (chicken liver lysate). Description: Competitive binding assay with 3H-N-desmethoxyapicidin, chick liver S100 lysate. Particulars: 3H-N-desmethoxyapicidin ligand. The procedure: Chick Liver. Livers from 3-5 three week old chickens are collected, rinsed in ice cold phosphate buffered saline (pH 7.4), diced into small pieces and rinsed again 3-4 times with ice cold 50 mM N-2-hydroxyethylpiperazine-N′-2-ethanesulfonic acid (HEPES) (pH 7.4) containing 0.1 mM phenylmethanesulfonyl fluoride (PMSF). The tissue is then resuspended in HEPES buffer, homogenized in a polytron homogenizer and centrifuged at 3000×g for 10 min. The supernatant is then subjected to an additional 100,000 g centrifugation for 1 hour. The pellet and the floating layer of lipid are discarded and the supernatant, referred to as the chick liver S100 fraction, is retained for binding assays. After estimating the protein concentration, the supernatant (S100) is aliquoted and frozen at −80 C.
as §1, §2, §3

A further assay concerns E. tenella. Description: In vitro antiparasitic activity against E. tenella. Format: cell-based, Eimeria tenella. The source says: (1) Generally following the procedure described in Crane, Schmatz, Stevens, Habbersett and Murray. Eimeria tenella: in vitro development in irradiated bovine kidney cells.(1984) Parasitology 88: 521-530.
For another assay, the system named is P. falciparum. Description: In vitro antiparasitic activity against P. falciparum. The format is cell-based. The source says: (2) Generally following the procedure described in Desjardins et al, “Quantitative Assessment of Antimalarial Activity In Vitro by a Semiautomated Microdilution Technique” Antimicrobial Agents and Chemotherapy 1979, 16:710-718.
Assay [3] relates to histone deacetylase (E. tenella extract). Description: Histone deacetylase inhibition assay (Assay 1), E. tenella extract. Format: biochemical, Eimeria tenella. How it is done: (§4) The standard assay contained in a total volume of 40 μL: 400 nmol HEPES-sodium, pH 7.4, 100 pmol of the substrate [AcGly-Ala-Lys(ε-^14C-Ac)-Arg-His-Arg-Lys(ε-^14C-Ac)-ValNH2] (see Kervabon et al (1979) FEBS Letters 106: 93-96) having a specific activity of approx. 114 mCi/mmol, and a source of histone deacetylase (HDAase) activity. The amount of HDAase added was chosen such that ≦20% of the substrate was consumed during the assay. The reaction was initiated by enzyme addition and allowed to proceed for 60 min at 41°. At 60 min, the reaction was terminated by the addition of a 50% slurry of Amberlite® AG 50W×4 cation exchange resin, sodium form (200-400 mesh) in 25 mM sodium acetate buffer, pH 4.2 (200 μL). The resin binds both remaining substrate and the (partially) deacetylated peptidyl products. The quenched reaction was then incubated for at least 30 min at 25° with occasional mixing, diluted with additional 25 mM sodium acetate buffer, pH 4.2 (760 μL; final volume 1000 μL), incubated for a minimum of an additional 30 min at 25° with occasional mixing, and then centrifuged at 10,000×g for 1 min. An aliquot of the supernatant (800 μL) containing the enzymatically released ^14C-acetate was removed, mixed with Aquasol 2 liquid scintillation counter (LSC) cocktail (10 mL), and counted in a Beckman model LS-5801 LSC. […]

Assay [4] deals with histone deacetylase (chicken liver extracts). Description: Histone deacetylase inhibition assay (Assay 1), chicken liver extract. The format is biochemical. Particulars: Assay 1, chicken liver extracts. How it is done:
as §4

As usually defined, the IC50 is the concentration needed to halve the response being measured.

`C[C@@H]1NC(=O)[C@H]2CCCN2C(=O)[C@H](CCCCCC(=O)[C@@H]2CO2)NC(=O)[C@@H](C)NC1=O` [HC-toxin]: the “Hyperacetylation of HeLa cell histones (shift in histone gel profile)” value in the assay with HeLa cell histones is on record as “cause a distinct shift in the histone gel profiles”.
`CCC(=O)CCCCC[C@@H]1NC(=O)[C@H]2CCCCN2C(=O)[C@H]([C@@H](C)CC)NC(=O)[C@H](Cc2cn(OC)c3ccccc23)NC1=O` [apicidin, Apicidin]: the “Hyperacetylation of HeLa cell histones (shift in histone gel profile)” value in the assay with HeLa cell histones is “cause a distinct shift in the histone gel profiles”. In addition, the “Hyperacetylation of P. falciparum histones” value in the assay with P. falciparum histones is “cause hyperacetylation”.
On to `CC(/C=C/C(=O)O)=C\[C@@H](C)C(=O)c1ccc(N(C)C)cc1` [trichostatic acid], for which, in assay [1], the half-maximal inhibitory concentration (IC50) was above 1 µM and the “IC50 in binding assay, E. tenella lysate” value is given as “no activity”. For the same compound, the “IC50 in binding assay, chicken liver lysate” value in assay [2] is listed as “no activity”. Also, the “minimum inhibitory concentration against E. tenella” value with E. tenella was “not active”. In the assay on P. falciparum, the “IC50 against P. falciparum” value is “not active”. In addition, in assay [3], the “IC50 in enzyme inhibition assay, E. tenella extract” value was “inactive”. In addition, the “IC50 in enzyme inhibition assay, chicken liver extract” value in assay [4] was “inactive”.
Turning to `CC(/C=C/C(=O)NO)=C\[C@@H](C)C(=O)c1ccc(N(C)C)cc1` [trichostatin], the “Hyperacetylation of HeLa cell histones (shift in histone gel profile)” value in the assay on HeLa cell histones is “cause a distinct shift in the histone gel profiles”. The “Hyperacetylation of P. falciparum histones” value in the assay on P. falciparum histones was “cause hyperacetylation”.

Source of the values: patent publication US6428983B1, “Histone deacetylase as target for antiprotozoal agents” (Merck & Co., priority 1995, dated 2002).
